Measurements taken from patent US8952042B2, “FXR (NR1H4) binding and activity modulating compounds” (Phenex Pharmaceuticals AG, priority 2009, dated 2015).

What was measured:
[1] = target: T1, human FXR alpha ligand binding domain (Homo sapiens, UniProt Q96RI1); assay: FRET activity assay (ligand mediated cofactor peptide interaction, LANCE); assay type: biochemical; conditions: potency range
T1 construct: made in house; host or cells: E. coli BL21(DE3), vector pDEST15
T1 sequence (Q96RI1 187-472 isoform Q96RI1-2): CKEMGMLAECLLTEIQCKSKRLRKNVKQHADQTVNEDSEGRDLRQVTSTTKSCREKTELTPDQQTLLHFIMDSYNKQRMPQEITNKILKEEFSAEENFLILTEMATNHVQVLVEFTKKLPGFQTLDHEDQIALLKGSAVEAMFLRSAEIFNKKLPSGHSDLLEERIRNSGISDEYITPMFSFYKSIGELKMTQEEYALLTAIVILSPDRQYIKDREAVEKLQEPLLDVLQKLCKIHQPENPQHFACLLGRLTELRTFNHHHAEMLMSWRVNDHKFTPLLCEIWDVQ
Method: Determination of a ligand mediated cofactor peptide interaction to quantify ligand binding to the nuclear receptor FXR was performed as follows: Preparation of human FXR alpha ligand binding domain: The human FXRalpha LBD was expressed in E. coli strain BL21(DE3) as an N-terminally GST tagged fusion protein. The DNA encoding the FXR ligand binding domain was cloned into vector pDEST15 (Invitrogen). Expression was under control of an IPTG inducible T7 promoter. The amino acid boundaries of the ligand binding domain were amino acids 187-472 of Database entry NM_005123 (RefSeq). Expression and purification of the FXR-LBD: An overnight preculture of a transformed E. coli strain was diluted 1:20 in LB-Ampicillin medium and grown at 30° C. to an optical density of OD600=0.4-0.6. Gene expression was then induced by addition of 0.5 mM IPTG. Cells were incubated an additional 6 h at 30° C., 180 rpm. Cells were collected by centrifugation (7000×g, 7 min, room temperature). Per liter of original cell culture, cells were resuspended in 10 mL lysis buffer (50 mM Glucose, 50 mM Tris pH 7.9, 1 mM EDTA and 4 mg/mL lysozyme) and left on ice for 30 min. Cells were then subjected to sonication and cell debris removed via centrifugation (22000×g, 30 min, 4° C.). Per 10 mL of supernatant 0.5 mL prewashed Glutathione 4B sepharose slurry (Qiagen) was added and the suspension kept slowly rotating for 1 h at 4° C. Glutathione 4B sepharose beads were pelleted by centrifugation (2000×g, 15 sec, 4° C.) and washed twice in wash buffer (25 mM Tris, 50 mM KCl, 4 mM MgCl2 and 1M NaCl). The pellet was resuspended in 3 mL elution buffer per liter of original culture (elution buffer: 20 mM Tris, 60 mM KCl, 5 mM MgCl2 and 80 mM glutathione added immediately prior to use as powder). The suspension was left rotating for 15 min at 4° C., the beads pelleted and eluted again with half the volume of elution buffer than the first time. The eluates were pooled and dialysed overnight in 20 mM Hepes buffer (pH 7.5) containing 60 mM KCl, 5 mM MgCl2 as well as 1 mM dithiothreitol and 10% (v/v) glycerol. The protein was analysed by SDS-Page.
The method measures the ability of putative ligands to modulate the interaction between the purified bacterial expressed FXR ligand binding domain (LBD) and a synthetic biotinylated peptide based on residues 676-700 of SRC-1 (LCD2, 676-700). […] The ligand binding domain (LBD) of FXR was expressed as fusion protein with GST in BL-21 cells using the vector pDEST15. Cells were lysed by sonication, and the fusion proteins purified over glutathione sepharose (Pharmacia) according to the manufacturers instructions. For screening of compounds for their influence on the FXR-peptide interaction, the Perkin Elmer LANCE technology was applied. This method relies on the binding dependent energy transfer from a donor to an acceptor fluorophor attached to the binding partner of interest. For ease of handling and reduction of background from compound fluorescence LANCE technology makes use of generic fluorophore labels and time resolved detection Assays were done in a final volume of 25 μL in a 384 well plate, in a Tris-based buffer (20 mM Tris-HCl pH 7.5; 60 mM KCl, 5 mM MgCl2; 35 ng/μL BSA), containing 20-60 ng/well recombinantly expressed FXR-LBD fused to GST, 200-600 nM N-terminally biotinylated peptide, representing SRC1 aminoacids 676-700, 200 ng/well Streptavidin-xIAPC conjugate (Prozyme) and 6-10 ng/well Eu W1024—antiGST (Perkin Elmer). DMSO content of the samples was kept at 1%. After generation of the assay mix and diluting the potentially FXR modulating ligands, the assay was equilibrated for one hour in the dark at room temperature in FIA-plates black 384 well (Greiner). The LANCE signal was detected by a Perkin Elmer VICTOR2V™ Multilabel Counter. The results were visualized by plotting the ratio between the emitted light at 665 and 615 nm.

[2] = Pharmacokinetics in monkeys after oral administration 12 mg/kg; assay type: in vivo, Cynomolgus monkeys (Macacca mulatta); conditions: oral 12 mg/kg, Avg; for AUC(0-inf) / AUC(0-t) / Cmax / Tmax / half-life / MRT last / Vd/F: Cynomolgus, cynomolgus monkey, plasma; for MRT last: read-out: MRT0-t (converted); for Vd/F: read-out: Vz/F
Method: Compounds were applied perorally by gavage at 5 mg/kg each and by i.v. Injection at 1 mg/kg each to male 12 weeks old C57BI/6J or Sprague Dawley rats and plasma concentrations of the test items were determined by LC-MS/MS after time points as indicated. In the case of Cynomolgus monkeys ([…]), the dose was adjusted to 12 mg/kg p.o., no i.v. injection was given (FIG. 1a, 1b and Table 2).
A solution of 2.5 mg/mL of each test item was produced by diluting them in the vehicle, 0.5% Hydroxypropyl-Methylcellulose (w/v) in 20 mM phosphate buffered saline pH 7.4. The solutions were stirred overnight at room temperature and heated to 40° C. for 10 minutes, resulting in fully homogenous suspension. The application was performed by administrating the solution perorally to the mice, with an application volume of 5 mL/kg. For each time point three mice or rats were used. In case of the Cynomolgus monkeys blood samples were obtained by repeated vein puncture. Blood samples were treated with L1-heparin during collection procedure and stored on ice until centrifugation at 645 g (5 min, 4° C.). Plasma was harvested and kept at −20° C. until being assayed. To 50 μL of plasma sample […] acetonitrile containing an internal standard was added. Samples were vigorously shaken and centrifuged for 10 minutes at 6000 g and 20° C. An aliquot of the particle-free supernatant was transferred to 200 μL sampler vials and subsequently subjected to LC MS/MS for quantification.

| SMILES | EC50 [1] | AUC(0-inf) [2] | AUC(0-t) [2] | Cmax [2] | Tmax [2] | half-life [2] | MRT last [2] | Vd/F [2] | CLz/F [2] |
| --- | --- | --- | --- | --- | --- | --- | --- | --- | --- |
| O=C(O)c1cccc(C2CC2c2ccc(OCc3c(-c4c(Cl)cccc4Cl)noc3C3CC3)cc2Cl)c1 (racemic) [Example 4, 3-(2-(2-chloro-4-((5-cyclopropyl-3-(2,6-dichlorophenyl)isoxazol-4-yl)methoxy)phenyl)-cyclopropyl)benzoic acid] | 10 to 100 nM | 30700 ng·h/mL | 30500 ng·h/mL | 7340 ng/mL | 1.42 h | 2.92 h | 4.31 h | 1.93 L/kg | 7 mL/min/kg |
| O=C(O)c1ccc(C2CC2c2ccc(OCc3c(-c4c(Cl)cccc4Cl)noc3C3CC3)cc2Cl)cc1 (racemic) [Example 12, 4-(2-(2-chloro-4-((5-cyclopropyl-3-(2,6-dichlorophenyl)isoxazol-4-yl)methoxy)phenyl)cyclopropyl)benzoic acid] | > 100 nM | 15100 ng·h/mL | 14500 ng·h/mL | 2220 ng/mL | 2.92 h | 4.54 h | 6.11 h | 5.19 L/kg | 13 mL/min/kg |
